One assay has as its system P38 pathway. The assay can be described thus: Western blot for activation of p38 pathway in rat aortic rings. Particulars: 2.7 μM CFZ 1.5 hours, with or without indomethacin plus LNAME (FIG. 7). The method, then: Aortas were isolated from 8-10 week old CD® (Sprague Dawley) rats (from Charles River Laboratories) in an ice-cold, oxygenated (95% O2, 5% CO2) Krebs-Henseleit buffer. The aortas were then carefully cleaned to remove perivascular fat and cut into 2-mm rings that were mounted between two stainless steel wires in the myograph chamber containing 8 mL of Krebs-Henseleit buffer in 95% O2 and 5% CO2 at 37° C. Rings were stretch until a final stretch of 10 mN (Newton) was reached and incubated for 30 mins for equilibration. The rings were constricted with 8 mL of 80 mM KPSS for 15 minutes, followed by 3 washes with the Krebs-Henseleit buffer until the force returned to the baseline stretch. The aorta were then treated for one of the following experiments: • For protein expression studies the aortic rings were pre-treated with 100 μM N(gamma)-nitro-L-arginine methyl ester (L-NAME; Sigma-Aldrich) and 10 μM indomethacin for 10 minutes prior to the pre-incubation with CFZ (Amgen Inc.) for 1.5 hours. The rings were then isolated for protein expression analysis. […]
(In western blotting, separated proteins are transferred to a membrane and probed.)

The next assay concerns rat aortic rings. The assay can be described thus: Basal vascular tone of isolated rat aortic rings, isometric myograph. On the procedure: An isometric myograph (DMT 620M) was used for ex vivo measurement of vascular function. Eight-to 10-week old Sprague Dawley rats (purchased from Charles River Laboratories, Wilmington, MA) were first anesthetized with 3% isoflurane and then euthanized using inhaled desflurane. The aortas were isolated in an ice-cold, oxygenated (95% O2, 5% CO2) Krebs-Henseleit buffer (118.3 mM NaCl, 4.7 mM KCl, 1.2 mM MgSO4, 1.2 mM KH2PO4, 2.5 mM CaCl2, 25 mM NaHCO3, and 11.0 mM glucose; purchased from Sigma-Aldrich, St. Louis, MO). The thoracic aorta was carefully cleaned to remove perivascular fat and cut into 2-mm rings that were mounted between two stainless steel wires in the myograph chamber containing 8 mL of Krebs-Henseleit buffer in 95% O2 and 5% CO2 at 37° C. First, the rings were equilibrated in the chamber for 20 minutes, followed by a gradual increase of mechanical stretch until a final stretch of 10 mN (Newton) was reached. After an additional incubation with fresh buffer for 30 minutes, the rings were constricted with 8 mL of 80 mM KPSS (43 mM NaCl, 80 mM KCl, 2.5 mM CaCl2, 1.2 mM MgSO4, 1.2 mM KH2PO4, 25.0 mM NaHCO3, and 11.0 mM glucose) for 15 to 20 minutes, followed by 3 washes with the Krebs-Henseleit buffer until the force returned to the baseline stretch. The tension of the aortic rings was continuously measured with the Lab Chart 7 data acquisition system (ADInstruments, Colorado Springs, CO). In Some of the experiments the aortic rings were pre-treated with 100 μM N(gamma)-nitro-L-arginine methyl ester (L-NAME; Sigma-Aldrich) and 10 μM indomethacin for 10 minutes prior to the pre-incubation with CFZ (Amgen Inc.) for 2 hours. After an additional incubation with fresh buffer for 30 minutes, the rings were constricted with 8 mL of 80 mM KPSS (43 mM NaCl, 80 mM KCl, 2.5 mM CaCl2, 1.2 mM MgSO4, 1.2 mM KH2PO4, 25.0 mM NaHCO3, and 11.0 mM glucose) for 15 to 20 minutes, followed by 3 washes with the Krebs-Henseleit buffer until the force returned to the baseline stretch. The tension of the aortic rings was continuously measured with the Lab Chart 7 data acquisition system (ADInstruments, Colorado Springs, CO).
To assess the effect of CFZ on vascular contraction, the aortic rings were pre-treated with or without CFZ for 2 hours, followed by treatment with an increasing concentration of phenylephrine (PE) from 10 nM to 1 μM. After the maximum contraction was achieved, the aortic rings were washed 3 times until the force returned to baseline. The contraction was continuously measured and plotted as percent contraction normalized to the response of KPSS. […] The relaxation was continuously measured and plotted as percent relaxation normalized to the response with 1 μM PE. […]

Consider `CC(C)C[C@H](NC(=O)[C@H](CCc1ccccc1)NC(=O)CN1CCOCC1)C(=O)N[C@@H](Cc1ccccc1)C(=O)N[C@@H](CC(C)C)C(=O)[C@@]1(C)CO1` [CFZ, carfilzomib], for which, in the assay with P38 pathway, the “activation of p38 pathway” value is listed as “caused activation of P38 pathway with or without endothelium dependent relaxing factors”. Further, the “percent contraction under eNOS inhibition (limited NO availability)” value in the assay on rat aortic rings (100 μM L-NAME and 10 μM indomethacin 10 minutes prior to 2-hour CFZ treatment, vs vehicle (FIG. 1B)) is reported as “significant but minor increase of percent contraction”. Besides, the “vascular tone (contraction normalized to 80 mM KPSS)” value with rat aortic rings (100 μM LNAME+10 μM indomethacin, 2.7 μM CFZ for 3 hour, vs vehicle (FIG. 10)) is recorded as “increase in vascular tone compared to vehicle”. The “percent contraction (basal vascular tone)” value with rat aortic rings (rings pretreated with CFZ without L-NAME, compared with vehicle control (FIG. 1A)) was “did not affect vascular tone”.

The values are drawn from US20260144798A1, “Disruption of Vascular Smooth Muscle Relaxation by Carfilzomib May be the Primary Reason for CFZ-Induced Vascular Dysfunction” (AMGEN INC., priority 2019, published 2026).
